Consider three compounds from ChEMBL document CHEMBL1909046, “DrugMatrix in vitro pharmacology data”.

Sequence of Substance-P receptor (P25103 whole entry): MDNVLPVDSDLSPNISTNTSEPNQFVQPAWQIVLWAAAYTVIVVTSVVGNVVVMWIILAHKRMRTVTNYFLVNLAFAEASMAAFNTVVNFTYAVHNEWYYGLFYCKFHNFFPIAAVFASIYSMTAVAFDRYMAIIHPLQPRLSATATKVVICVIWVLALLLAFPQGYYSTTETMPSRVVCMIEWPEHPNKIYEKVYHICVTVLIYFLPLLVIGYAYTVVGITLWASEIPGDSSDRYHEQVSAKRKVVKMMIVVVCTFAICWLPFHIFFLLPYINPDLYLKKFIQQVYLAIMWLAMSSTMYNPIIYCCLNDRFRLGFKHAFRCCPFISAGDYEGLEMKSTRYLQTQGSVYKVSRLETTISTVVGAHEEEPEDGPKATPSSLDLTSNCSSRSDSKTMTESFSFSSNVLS

For one assay, the target named is C-C chemokine receptor type 5 (Homo sapiens, UniProt P51681). Further: in other assays of this panel Not Active means under 50% inhibition at 10 µM.
Sequence of C-C chemokine receptor type 5 (P51681 whole entry): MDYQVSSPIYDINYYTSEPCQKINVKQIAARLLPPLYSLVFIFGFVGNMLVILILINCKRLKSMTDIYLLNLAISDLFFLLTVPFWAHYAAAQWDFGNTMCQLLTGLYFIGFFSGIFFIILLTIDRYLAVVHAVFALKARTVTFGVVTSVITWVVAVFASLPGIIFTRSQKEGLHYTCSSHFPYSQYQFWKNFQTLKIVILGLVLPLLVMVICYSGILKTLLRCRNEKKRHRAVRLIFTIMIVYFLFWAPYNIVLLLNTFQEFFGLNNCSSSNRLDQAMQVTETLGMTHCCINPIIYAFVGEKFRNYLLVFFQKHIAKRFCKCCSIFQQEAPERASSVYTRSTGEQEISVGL
Assay: not given
The class given is cell membranes, Membrane. The following applies: hek293.
Regarding `CCOC(=O)OC(C)OC1=C(C(=O)Nc2ccccn2)N(C)S(=O)(=O)c2ccccc21` (stereo unspecified) [AMPIROXICAM], the IC50 entry is “Not Active”.
As to GOLD SODIUM THIOMALATE, the IC50 entry is recorded as “Not Active” and the Ki entry is recorded as “Not Active”.
As for `CC[N+](CC)(CC)CCOc1cccc(OCC[N+](CC)(CC)CC)c1OCC[N+](CC)(CC)CC.[I-].[I-].[I-]` [GALLAMINE TRIETHIODIDE], the IC50 entry is listed as “Not Active”.

The target of a further assay is T1, Angiotensin-converting enzyme (Oryctolagus cuniculus, UniProt P12822).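 Further: enzymatic inhibition of angiotensin-converting enzyme measured with FAPGG as the substrate; in other assays of this panel Not Active means under 50% inhibition at 10 µM.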
T1 sequence (P12822 whole entry): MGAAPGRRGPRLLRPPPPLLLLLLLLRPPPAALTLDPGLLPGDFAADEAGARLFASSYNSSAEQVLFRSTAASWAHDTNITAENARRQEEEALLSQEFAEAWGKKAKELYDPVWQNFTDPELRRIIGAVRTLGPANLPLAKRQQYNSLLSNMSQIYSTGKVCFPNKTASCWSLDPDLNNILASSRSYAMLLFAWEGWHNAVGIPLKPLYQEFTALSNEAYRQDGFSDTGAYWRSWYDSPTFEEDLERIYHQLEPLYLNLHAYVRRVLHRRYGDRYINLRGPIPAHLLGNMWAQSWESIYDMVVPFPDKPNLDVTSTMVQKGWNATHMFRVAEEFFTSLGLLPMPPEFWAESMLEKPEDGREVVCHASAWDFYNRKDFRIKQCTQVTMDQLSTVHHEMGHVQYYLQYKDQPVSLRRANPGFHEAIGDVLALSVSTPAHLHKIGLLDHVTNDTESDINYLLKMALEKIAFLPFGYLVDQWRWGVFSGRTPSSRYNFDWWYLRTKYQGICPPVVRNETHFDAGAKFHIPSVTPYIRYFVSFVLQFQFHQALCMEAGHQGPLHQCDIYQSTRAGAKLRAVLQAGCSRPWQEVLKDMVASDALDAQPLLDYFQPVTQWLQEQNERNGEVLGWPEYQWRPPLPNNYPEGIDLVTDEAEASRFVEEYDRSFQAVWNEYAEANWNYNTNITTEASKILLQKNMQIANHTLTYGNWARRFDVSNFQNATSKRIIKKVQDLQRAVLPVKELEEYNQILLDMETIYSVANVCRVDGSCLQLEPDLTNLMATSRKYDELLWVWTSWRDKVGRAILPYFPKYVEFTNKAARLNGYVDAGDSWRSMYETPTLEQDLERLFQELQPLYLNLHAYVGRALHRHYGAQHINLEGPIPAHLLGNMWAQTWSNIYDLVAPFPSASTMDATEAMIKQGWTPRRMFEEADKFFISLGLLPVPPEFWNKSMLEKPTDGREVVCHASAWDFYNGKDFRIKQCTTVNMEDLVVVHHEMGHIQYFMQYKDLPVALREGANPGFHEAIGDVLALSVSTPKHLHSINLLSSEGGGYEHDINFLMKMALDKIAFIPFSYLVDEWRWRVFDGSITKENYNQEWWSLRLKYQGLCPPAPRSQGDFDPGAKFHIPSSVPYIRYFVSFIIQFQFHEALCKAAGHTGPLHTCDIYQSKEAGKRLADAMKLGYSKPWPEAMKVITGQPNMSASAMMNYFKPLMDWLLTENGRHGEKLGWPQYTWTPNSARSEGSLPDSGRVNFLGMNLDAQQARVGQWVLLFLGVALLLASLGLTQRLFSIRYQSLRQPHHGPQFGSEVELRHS
The experiment in a line: biochemical. The class given is tissue-based, Lung.
Details: not given
`CCOC(=O)OC(C)OC1=C(C(=O)Nc2ccccn2)N(C)S(=O)(=O)c2ccccc21` (stereo unspecified) [AMPIROXICAM]: the IC50 entry is “Not Active”.
As to GOLD SODIUM THIOMALATE, the IC50 entry is recorded as “Not Active” and the Ki entry is recorded as “Not Active”.
For `CC[N+](CC)(CC)CCOc1cccc(OCC[N+](CC)(CC)CC)c1OCC[N+](CC)(CC)CC.[I-].[I-].[I-]` [GALLAMINE TRIETHIODIDE], the IC50 entry was “Not Active”.

The next assay deals with T2, Calcitonin receptor (Homo sapiens, UniProt P30988).
T2 sequence (P30988 whole entry): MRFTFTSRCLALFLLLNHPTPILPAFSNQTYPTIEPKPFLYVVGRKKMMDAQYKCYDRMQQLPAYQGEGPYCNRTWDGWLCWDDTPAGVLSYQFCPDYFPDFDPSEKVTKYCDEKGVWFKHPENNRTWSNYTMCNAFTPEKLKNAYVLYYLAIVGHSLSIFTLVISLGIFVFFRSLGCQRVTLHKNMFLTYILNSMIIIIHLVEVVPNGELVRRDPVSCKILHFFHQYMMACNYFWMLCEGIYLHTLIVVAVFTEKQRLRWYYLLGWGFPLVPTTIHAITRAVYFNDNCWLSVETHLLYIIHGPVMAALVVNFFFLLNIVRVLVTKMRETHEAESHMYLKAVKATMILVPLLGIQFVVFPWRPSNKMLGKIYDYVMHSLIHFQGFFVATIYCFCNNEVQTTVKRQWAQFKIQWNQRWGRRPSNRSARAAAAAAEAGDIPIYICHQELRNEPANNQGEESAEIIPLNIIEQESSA
Assay: not given
In kind it is cell membranes, Membrane. Conditions: t47d.
Regarding `CCOC(=O)OC(C)OC1=C(C(=O)Nc2ccccn2)N(C)S(=O)(=O)c2ccccc21` (stereo unspecified) [AMPIROXICAM], the IC50 entry is on record as “Not Active”.
Turning to GOLD SODIUM THIOMALATE, the IC50 entry is “Not Active” and the Ki entry is “Not Active”.
Turning to `CC[N+](CC)(CC)CCOc1cccc(OCC[N+](CC)(CC)CC)c1OCC[N+](CC)(CC)CC.[I-].[I-].[I-]` [GALLAMINE TRIETHIODIDE], the IC50 result was “Not Active”.

The next assay deals with Mitogen-activated protein kinase 3 (Homo sapiens, UniProt P27361). The experiment in a line: DRUGMATRIX: Protein Serine/Threonine Kinase, ERK1 enzyme inhibition (substrate: Myelin Basic Protein). Also on record: species or system Escherichia coli. The following applies: Not Active = under 50% inhibition at 10 µM.
Sequence of Mitogen-activated protein kinase 3 (P27361 whole entry): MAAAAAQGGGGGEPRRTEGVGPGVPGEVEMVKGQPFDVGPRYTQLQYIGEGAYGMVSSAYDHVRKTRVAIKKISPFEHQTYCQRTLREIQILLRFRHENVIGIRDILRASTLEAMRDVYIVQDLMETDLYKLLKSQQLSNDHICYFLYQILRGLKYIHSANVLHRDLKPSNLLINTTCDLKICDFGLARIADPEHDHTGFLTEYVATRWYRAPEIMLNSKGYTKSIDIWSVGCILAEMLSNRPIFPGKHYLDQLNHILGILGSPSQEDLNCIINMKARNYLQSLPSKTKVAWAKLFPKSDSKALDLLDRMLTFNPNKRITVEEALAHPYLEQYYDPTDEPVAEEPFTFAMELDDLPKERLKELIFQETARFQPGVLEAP
As to `CCOC(=O)OC(C)OC1=C(C(=O)Nc2ccccn2)N(C)S(=O)(=O)c2ccccc21` (stereo unspecified) [AMPIROXICAM], the IC50 entry is given as “Not Active”.
With GOLD SODIUM THIOMALATE, the IC50 result was “Not Active” and the Ki result was “Not Active”.
Turning to `CC[N+](CC)(CC)CCOc1cccc(OCC[N+](CC)(CC)CC)c1OCC[N+](CC)(CC)CC.[I-].[I-].[I-]` [GALLAMINE TRIETHIODIDE], the IC50 result was “Not Active”.

Tested on in the next assay: not listed separately
In words: DRUGMATRIX: Potassium Channel [KATP] radioligand binding (ligand: [3H] Glyburide). The class given is cell membranes, Membrane. The following applies: hit-t15; Not Active = under 50% inhibition at 10 µM.
`CCOC(=O)OC(C)OC1=C(C(=O)Nc2ccccn2)N(C)S(=O)(=O)c2ccccc21` (stereo unspecified) [AMPIROXICAM]: the IC50 result was “Not Active” and the Ki result was “Not Active”.
For GOLD SODIUM THIOMALATE, the IC50 entry is given as “Not Active” and the Ki result was “Not Active”.
On to `CC[N+](CC)(CC)CCOc1cccc(OCC[N+](CC)(CC)CC)c1OCC[N+](CC)(CC)CC.[I-].[I-].[I-]` [GALLAMINE TRIETHIODIDE], for which the IC50 result is listed as “Not Active” and the Ki entry is reported as “Not Active”.

Tested on in the next assay: not listed separately
In words: DRUGMATRIX: GABAA, Muscimol, Central radioligand binding (ligand: [3H] Muscimol). The class given is cell membranes, Rattus norvegicus, Wistar, Brain, Membrane. Conditions: Not Active = under 50% inhibition at 10 µM.
With `CCOC(=O)OC(C)OC1=C(C(=O)Nc2ccccn2)N(C)S(=O)(=O)c2ccccc21` (stereo unspecified) [AMPIROXICAM], the IC50 entry was “Not Active” and the Ki entry is “Not Active”.
For the compound GOLD SODIUM THIOMALATE, the IC50 result is recorded as “Not Active” and the Ki entry is listed as “Not Active”.
For the compound `CC[N+](CC)(CC)CCOc1cccc(OCC[N+](CC)(CC)CC)c1OCC[N+](CC)(CC)CC.[I-].[I-].[I-]` [GALLAMINE TRIETHIODIDE], the IC50 entry is “Not Active” and the Ki entry is reported as “Not Active”.

The next assay has as its target Glycine receptor (Rattus norvegicus, UniProt P22771+P24524+P07727+P20781). Further: in other assays of this panel Not Active means under 50% inhibition at 10 µM.
Assay: not given
In kind it is cell membranes, Wistar, Spinal cord, Membrane.
Details: not given
Consider `CCOC(=O)OC(C)OC1=C(C(=O)Nc2ccccn2)N(C)S(=O)(=O)c2ccccc21` (stereo unspecified) [AMPIROXICAM], for which the IC50 result is given as “Not Active”.
Turning to GOLD SODIUM THIOMALATE, the IC50 entry was “Not Active” and the Ki entry is “Not Active”.
Turning to `CC[N+](CC)(CC)CCOc1cccc(OCC[N+](CC)(CC)CC)c1OCC[N+](CC)(CC)CC.[I-].[I-].[I-]` [GALLAMINE TRIETHIODIDE], the IC50 entry is recorded as “Not Active”.

The next assay has as its target Substance-P receptor (Homo sapiens, UniProt P25103). Further: in other assays of this panel Not Active means under 50% inhibition at 10 µM.
Assay: not given
The class given is cell membranes, CHO, Membrane. Conditions: cho.
Turning to `CCOC(=O)OC(C)OC1=C(C(=O)Nc2ccccn2)N(C)S(=O)(=O)c2ccccc21` (stereo unspecified) [AMPIROXICAM], the IC50 entry is reported as “Not Active”.
With GOLD SODIUM THIOMALATE, the IC50 entry was “Not Active” and the Ki entry was “Not Active”.
`CC[N+](CC)(CC)CCOc1cccc(OCC[N+](CC)(CC)CC)c1OCC[N+](CC)(CC)CC.[I-].[I-].[I-]` [GALLAMINE TRIETHIODIDE]: the IC50 result is listed as “Not Active”.

Tested on in another assay: not listed separately
In words: DRUGMATRIX: Nicotinic Acetylcholine radioligand binding (ligand: [125I] Epibatidine). The class given is cell membranes, Membrane. The following applies: imr-32; Not Active = under 50% inhibition at 10 µM.
For the compound `CCOC(=O)OC(C)OC1=C(C(=O)Nc2ccccn2)N(C)S(=O)(=O)c2ccccc21` (stereo unspecified) [AMPIROXICAM], the IC50 entry was “Not Active” and the Ki entry was “Not Active”.
As to GOLD SODIUM THIOMALATE, the IC50 entry is given as “Not Active” and the Ki result is recorded as “Not Active”.
For `CC[N+](CC)(CC)CCOc1cccc(OCC[N+](CC)(CC)CC)c1OCC[N+](CC)(CC)CC.[I-].[I-].[I-]` [GALLAMINE TRIETHIODIDE], the IC50 entry was “Not Active” and the Ki entry is on record as “Not Active”.

A further assay deals with Adenosine receptor A2a (Homo sapiens, UniProt P29274). In words: DRUGMATRIX: Adenosine A2A radioligand binding (ligand: […]). The class given is cell membranes, HEK293, Membrane. The following applies: hek293; Not Active = under 50% inhibition at 10 µM.
Sequence of Adenosine receptor A2a (P29274 whole entry): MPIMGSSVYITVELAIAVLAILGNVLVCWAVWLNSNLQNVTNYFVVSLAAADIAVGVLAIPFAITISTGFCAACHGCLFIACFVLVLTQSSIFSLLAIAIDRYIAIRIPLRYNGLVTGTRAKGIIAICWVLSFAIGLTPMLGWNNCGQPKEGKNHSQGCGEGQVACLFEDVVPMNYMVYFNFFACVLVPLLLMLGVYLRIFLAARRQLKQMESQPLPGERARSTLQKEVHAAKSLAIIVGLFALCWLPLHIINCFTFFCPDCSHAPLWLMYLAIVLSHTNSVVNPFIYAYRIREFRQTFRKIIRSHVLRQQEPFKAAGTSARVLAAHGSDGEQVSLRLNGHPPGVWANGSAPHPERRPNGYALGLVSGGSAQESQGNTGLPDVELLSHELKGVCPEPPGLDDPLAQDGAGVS
With `CCOC(=O)OC(C)OC1=C(C(=O)Nc2ccccn2)N(C)S(=O)(=O)c2ccccc21` (stereo unspecified) [AMPIROXICAM], the IC50 result is “Not Active”.
For GOLD SODIUM THIOMALATE, the IC50 entry is listed as “Not Active” and the Ki entry is recorded as “Not Active”.
On to `CC[N+](CC)(CC)CCOc1cccc(OCC[N+](CC)(CC)CC)c1OCC[N+](CC)(CC)CC.[I-].[I-].[I-]` [GALLAMINE TRIETHIODIDE], for which the IC50 entry is on record as “Not Active”.

A further assay concerns the target T3, Substance-K receptor (Homo sapiens, UniProt P21452). Further: in other assays of this panel Not Active means under 50% inhibition at 10 µM.
T3 sequence (P21452 whole entry): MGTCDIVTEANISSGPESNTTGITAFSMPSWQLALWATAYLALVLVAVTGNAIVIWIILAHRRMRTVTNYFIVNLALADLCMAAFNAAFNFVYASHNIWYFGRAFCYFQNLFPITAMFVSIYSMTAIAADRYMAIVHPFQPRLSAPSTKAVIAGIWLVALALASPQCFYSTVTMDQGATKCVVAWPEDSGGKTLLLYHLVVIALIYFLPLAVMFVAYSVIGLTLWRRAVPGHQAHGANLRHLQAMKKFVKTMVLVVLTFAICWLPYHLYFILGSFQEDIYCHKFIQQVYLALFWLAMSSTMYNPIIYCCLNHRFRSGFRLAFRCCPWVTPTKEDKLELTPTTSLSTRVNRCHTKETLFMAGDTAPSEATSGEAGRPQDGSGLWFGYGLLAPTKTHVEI
Assay: not given
In kind it is cell membranes, CHO, Membrane. The following applies: cho.
Turning to `CCOC(=O)OC(C)OC1=C(C(=O)Nc2ccccn2)N(C)S(=O)(=O)c2ccccc21` (stereo unspecified) [AMPIROXICAM], the IC50 entry is “Not Active”.
As for GOLD SODIUM THIOMALATE, the IC50 result is “Not Active” and the Ki entry was “Not Active”.
For the compound `CC[N+](CC)(CC)CCOc1cccc(OCC[N+](CC)(CC)CC)c1OCC[N+](CC)(CC)CC.[I-].[I-].[I-]` [GALLAMINE TRIETHIODIDE], the IC50 entry is reported as “Not Active”.

Tested on in a further assay: not listed separately
In words: DRUGMATRIX: Interleukin IL-1 radioligand binding (ligand: [125I] interleukin 1beta). The class given is cell membranes, Membrane. Conditions: nih3t3; Not Active = under 50% inhibition at 10 µM.
In the case of `CCOC(=O)OC(C)OC1=C(C(=O)Nc2ccccn2)N(C)S(=O)(=O)c2ccccc21` (stereo unspecified) [AMPIROXICAM], the IC50 entry is listed as “Not Active” and the Ki entry is given as “Not Active”.
Regarding GOLD SODIUM THIOMALATE, the IC50 result is on record as “Not Active” and the Ki result was “Not Active”.
For `CC[N+](CC)(CC)CCOc1cccc(OCC[N+](CC)(CC)CC)c1OCC[N+](CC)(CC)CC.[I-].[I-].[I-]` [GALLAMINE TRIETHIODIDE], the IC50 entry is recorded as “Not Active” and the Ki entry was “Not Active”.
